Test results taken from patent US5254546A, “Fused aryl substituted imidazole angiotensin II receptor inhibitors” (E. I. Du Pont de Nemours and Company, priority 1992, dated 1993).

Experiments:
Angiotensin II Receptor = assay: AII receptor ligand-receptor binding assay (rat adrenal cortical microsomes, displacement of 3H-AII or 125I-AII); conditions: Table 7, 1 hour, room temperature
Method: The hormone angiotensin II (AII) produces numerous biological responses (e.g. vasoconstriction) through stimulation of its receptors on cell membranes. For the purpose of identifying compounds such as AII antagonists which are capable of interacting with the AII receptor, a ligand-receptor binding assay was utilized for the initial screen. The assay was carried out according to the method described by [Glossmann et al., J. Biol. Chem., 249, 825 (1974)], but with some modifications. The reaction mixture contained rat adrenal cortical microsomes (source of AII receptor) in Tris buffer and 2 nM of ^3 H-AII or 0.05 nM ^125 I-AII with or without potential AII antagonist. This mixture was incubated for 1 hour at room temperature and the reaction was subsequently terminated by rapid filtration and rinsing through glass micro-fibre filter. Receptor-bound ^3 H-AII or ^125 I-AII trapped in filter was quantitated by scintillation counting. The inhibitory concentration (IC50) of potential AII antagonist which gives 50% displacement of the total specifically bound ^3 H-AII or ^125 I-AII is a measure of the affinity of such compound for the AII receptor.

[1] = system: awake rats made hypertensive by ligation of the left renal artery; assay: Antihypertensive effects in renal hypertensive rats (left renal artery ligation); assay type: in vivo, rat; conditions: for Antihypertensive Effects in Renal Hypertensive Rats, Intravenous Activity: 3 mg/kg; for Antihypertensive Effects in Renal Hypertensive Rats, Oral Activity: 30 mg/kg
Method: Blood pressure levels after treatment are compared to pretreatment levels to determine the antihypertensive effects of the compounds which were tested.

[2] = system: effects of AII on the blood pressure of pithed rats; conditions: cited from earlier work
mammals and man = conditions: cited from earlier work
[3] = system: renal vasoconstrictor effect of indomethacin and meclofenamate in dogs; conditions: cited from earlier work

| Structure (SMILES) | IC50 (Angiotensin II Receptor) | Antihypertensive Effects in Renal Hypertensive Rats, Intravenous Activity [1] | Antihypertensive Effects in Renal Hypertensive Rats, Oral Activity [1] | other results |
| --- | --- | --- | --- | --- |
| CCCc1nc(-c2cccc3ccccc23)c(C=O)n1Cc1ccc(-c2ccccc2-c2nnn[nH]2)cc1 [Example 1, 4-(naphth-1-yl)-2-n-propyl-1-[(2'-(1H-tetrazol-5-yl)biphenyl-4-yl)methyl]imidazole-5-carboxaldehyde] | 21 nM | + (Significant decrease in blood pressure at 3.0 mg/kg or less) | + (Significant decrease in blood pressure at 30 mg/kg or less) | – |
| CCCc1nc(-c2cc3ccccc3s2)c(C=O)n1Cc1ccc(-c2ccccc2-c2nn[nH]n2)cc1 [Example 7] | 29 nM | NA (Not active at 3 mg/kg or 30 mg/kg dosage tested) | – | – |
| CCCc1nc(-c2ccc(F)c3ccccc23)c(C=O)n1Cc1ccc(-c2ccccc2-c2nn[nH]n2)cc1 [Example 8] | 170 nM | NA (Not active at 3 mg/kg or 30 mg/kg dosage tested) | – | – |
| CCCc1nc(-c2ccc3c4c(cccc24)CC3)c(C=O)n1Cc1ccc(-c2ccccc2-c2nn[nH]n2)cc1 [Example 9] | 490 nM | NA (Not active at 3 mg/kg or 30 mg/kg dosage tested) | – | – |
| CCCc1nc(-c2ccc3ccccc3c2)c(C=O)n1Cc1ccc(-c2ccccc2-c2nn[nH]n2)cc1 [Example 10] | 99 nM | NA (Not active at 3 mg/kg or 30 mg/kg dosage tested) | NA (Not active at 3 mg/kg or 30 mg/kg dosage tested) | – |
| CCCc1nc(-c2ccc3cc(OC)ccc3c2)c(C=O)n1Cc1ccc(-c2ccccc2-c2nn[nH]n2)cc1 [Example 11] | 160 nM | NA (Not active at 3 mg/kg or 30 mg/kg dosage tested) | – | – |
| CCCc1nc(-c2cc3ccccc3c3ccccc23)c(C=O)n1Cc1ccc(-c2ccccc2-c2nn[nH]n2)cc1 [Example 24] | 170 nM | + (Significant decrease in blood pressure at 3.0 mg/kg or less) | NA (Not active at 3 mg/kg or 30 mg/kg dosage tested) | – |
| CCCc1nc(-c2cc3ccccc3o2)c(C=O)n1Cc1ccc(-c2ccccc2-c2nn[nH]n2)cc1 [Example 41] | 110 nM | + (Significant decrease in blood pressure at 3.0 mg/kg or less) | + (Significant decrease in blood pressure at 30 mg/kg or less) | – |
| CCCc1nc(/C=C\c2cccc3ccccc23)c(C=O)n1Cc1ccc(-c2ccccc2-c2nn[nH]n2)cc1 [Example 95] | 13 nM | + (Significant decrease in blood pressure at 3.0 mg/kg or less) | + (Significant decrease in blood pressure at 30 mg/kg or less) | – |
| CCCc1nc(/C=C/c2cccc3ccccc23)c(C=O)n1Cc1ccc(-c2ccccc2-c2nn[nH]n2)cc1 [Example 96] | 560 nM | + (Significant decrease in blood pressure at 3.0 mg/kg or less) | – | – |
| CCCc1nc(/C=C\c2ccc3ccccc3c2)c(C=O)n1Cc1ccc(-c2ccccc2-c2nn[nH]n2)cc1 [Example 97] | 540 nM | + (Significant decrease in blood pressure at 3.0 mg/kg or less) | – | – |
| CNCC(=O)N[C@@H](CCCN=C(N)N)C(=O)N[C@H](C(=O)N[C@@H](Cc1ccc(O)cc1)C(=O)N[C@H](C(=O)N[C@@H](Cc1cnc[nH]1)C(=O)N1CCC[C@H]1C(=O)N[C@@H](C)C(=O)O)C(C)C)C(C)C [Saralasin, [Sar^1, Ala^8] AII] | – | – | – | antagonism of AII effects on blood pressure [2]: one of the most potent competitive antagonists of the actions of AII; oral effectiveness (mammals and man; oral doses): oral doses being ineffective; duration of pharmacological effects (mammals and man; parenteral administration): relatively short-lasting; lowering of arterial pressure (mammals and man; when the elevated pressure is dependent on circulating AII): lower arterial pressure in mammals and man; pressor effects (mammals and man; when the pressure is not sustained by AII): generally elicits pressor effects when the pressure is not sustained by AII; effect on renal vasoconstriction by NSAID [3]: inhibit the renal vasoconstrictor effect of indomethacin and meclofenamate in dogs |
| C[C@H](CS)C(=O)N1CCC[C@H]1C(=O)O [captopril] | – | – | – | effect on renal vasoconstriction by NSAID [3]: reverse the renal vasoconstrictor effect of indomethacin in dogs with non-hypotensive hemorrhage |
